This is an account of results in US20080255244A1, “CaM Kinase II Inhibitor Improves Retinoic Acid Therapy and Inhibits the Proliferation of Myeloid Leukemia Cells” (Fred Hutchinson Cancer Research Center, priority 2007, published 2008).

In experiment [1] the test system is NB4 promyelocytic leukemia cell line. In words: Differentiation of NB4 cells (morphology, Cd11b). Particulars: five days; for morphologic granulocytic differentiation of NB4: single agent, KN-62 5 μM, ATRA 10^−9 M. Type of experiment: cell-based, human. Here is the method:
(§1) FIG. 7. KN-62 regulates the differentiation of myeloid leukemia cell lines. (A) Wright Giemsa-stained HL-60 cells either (a) uninduced or treated for five days with (b) KN62 or (c) ATRA. (d) CD11b expression in HL-60 cells after five days exposure to KN62 (5 μM) or ATRA (1 μM). (B) Wright-Giemsa stained NB4 cells treated for five days with KN-62 (5 μM) and ATRA as indicated. […] (C) Cd11b expression of NB4 cells treated for five days with the indicated concentrations of RA and/or KN-62. (D) Western blots with the indicated antibodies were performed on HL60 cell lysates following incubation with KN62 for the indicated period of time. (E) Western blots of NB4 cell lysates following a five day incubation with the indicated compounds.
Antibodies and chemical reagents. Antibodies against RARα, βtubulin, CaMKIIα, CaMKIIβ, CaMKIIγ, CaMKIIδ, CaMKIα, as well as phosphospecific antibodies against CaMKII were all purchased from Santa Cruz Biotechnology. Antibodies against N-CoR and SMRT were from Upstate Biotechnology. CaMKIV antibody was from BD Biosciences. Anti-FLAG antibody was from Sigma while anti-HA antibody from Novachem. Quantitation of CD11b surface antigen expression was performed utilizing the fluorescent-activated cell sorter (FACS) with PE-conjugated anti-CD11b antibody from Becton Dickinson. KN-62, KN-93 and ionomycin were obtained from Calbiochem. ATRA and calmodulin agarose beads were from Sigma.

Experiment [2] deals with autophosphorylated CaMKIIγ in HL60 cells. As to the kind of experiment: Western blot of CaMKIIγ autophosphorylation in HL60 cells. The experiment is classed as cell-based, human. As to conditions: for activated, autophosphorylated CaMKIIγ level: phospho-T286/7 antibody, ATRA 1 μM, TPA 0.1 μM. The method, then: as §1
FIG. 9. Terminal differentiation/apoptosis of myeloid leukemia cells is associated with decreased CaMKIIγ activation. (A) Lysates from the HL60, NB4 and U937 myeloid cell lines treated with ATRA (1 μM) for the indicated period of time were subjected to Western blots. (B) Lysates from the indicated myeloid cell lines treated for five days with the indicated concentration of ATRA were subjected to Western blots. (C) Lysates from HL60 cells treated with TPA (0.1 μM) for the indicated time were subjected to Western blots. (D) Lysates from NB4 cells treated with arsenic trioxide (1 uM) for the indicated time were subjected to Western blots.
Protein extracts, Western blotting and co-immunoprecipitations. Westerns and co-immunoprecipitations were performed as previously detailed (Si, J., and Collins, S. J., Blood 100:4401-4409 (2002)).
Antibodies and Western blots. Protein extracts, immunoprecipitations and Western blots were performed as previously detailed (Si J, Collins S J. IL-3-induced enhancement of retinoic acid receptor activity is mediated through Stat5, which physically associates with retinoic acid receptors in an IL-3-dependent manner. Blood 100: 4401-9 (2002)). Antibodies against CaMKI, CaMKIIγ, CaMKIV, c-myc, Stat3, Stat5, calmodulin, as well as the phosphospecific CaMKII (T286, 287) and phosphospecific CaMKI (T177) antibodies were from Santa Cruz Biotechnology. Antibodies against phospho-Stat1 (Ser727), phospho-Stat3 (Ser727 and Tyr 705), phospho-Stat5 (Tyr 694), phospho-p44/42 MAP kinase (Thr202/Tyr 204), p44/42 MAP kinase, phospho-p38 MAP kinase (Thr 180/Tyr 182), phospho-GSK3β (Ser9) were from Cell Signaling Technology. Antibodies against Stat1, GSK3β, β-catenin, PP2Ac, and cyclin D1 were from BD Biosciences.

The subject of a further experiment is K-562 cells. As to the kind of experiment: Differentiation of K-562 cells. Type of experiment: cell-based, human. An excerpt: Pharmacological CaMK inhibitors trigger myeloid leukemia cell differentiation. Particularly compelling evidence for the physiological importance of the CaMKII—mediated regulation of RAR activity is our experimental observation that KN-62, a pharmacological inhibitor of the CaMKs, enhances both RAR transcriptional activity (FIG. 1B) and the differentiation of certain myeloid leukemia cell lines (FIG. 7). Acute myelogenous leukemia (AML) is a heterogenous disease, and successful therapy with RA has been generally confined to those leukemias harboring RARα chromosome translocations.
Inhibitors of CaMKII inhibit the proliferation of myeloid leukemia cell lines. To determine whether inhibiting CaMKIIγ activity might have any effect on myeloid leukemia cell proliferation/viability, we treated K562 cells with the CaMK inhibitor KN93. […] The KN93 induced inhibition of K562 cell proliferation was accompanied by a reduction in the levels of the activated (autophosphorylated) CaMKIIγ (FIG. 12A, row 1).

The subject of experiment [3] is Stat3 Ser727 phosphorylation in TonB210 cells. In words: bcr-abl induced Stat3 Ser727 phosphorylation in TonB210.1 cells (Western blot). Particulars: compound added immediately prior to doxycycline, 24 hours. Type of experiment: cell-based. The method, then:
FIG. 13. Stat3 is directly phosphorylated and activated by CaMKIIγ at Ser727. (A, i). Cell lysates from the indicated human leukemia cell lines were subjected to Western blots utilizing the indicated Stat3 antibodies. ii). Cell lysates from the same primary AML samples depicted in FIG. 1B were subjected to Western blots utilizing the indicated Stat3 antibodies. B). The IL-3 dependent TonB210.1 cells were deprived of IL-3 for 24 hours. The cells were then treated with the indicated compounds immediately prior to the addition of doxycycline. After an additional 24 hours cell lysates were harvested and subjected to Western blots with the indicated Stat3 antibodies. C). K562 cells were electroporated with a luciferase reporter driven by a Stat3 response element. The indicated concentrations of KN93 and the Stat 3 inhibitor, cucurbitacin I, were added and relative luciferase activity determined on cell lysates following 48 hours of culture. D, i) K562 cell lysates were immunoprecipitated with control IgG or a Stat3 antibody. The immunoprecipitates were then subjected to Western blot analysis with the indicated antibodies. ii,) A bacterial—expressed GST-Stat3 fusion protein was incubated in vitro with CaMKIIγ that had been immunoprecipitated from HL60 cells. Western blots were then performed on the reaction mixtures utilizing the indicated Stat3 antibodies. iii,). […]
(In general: Immunoblotting shows a protein as a band on a membrane.)

SMILES strings stand for the structures.

As for `CC1=C(/C=C/C(C)=C/C=C/C(C)=C/C(=O)O)C(C)(C)CCC1` [ATRA, All-trans retinoic acid], the “morphologic granulocytic differentiation of NB4” value in experiment [1] is given as “little differentiation”. Further, in experiment [2], the “total CaMKIIγ level” value was “essentially unchanged” and the “activated, autophosphorylated CaMKIIγ level” value was “marked decrease”.

Consider `CN([C@@H](Cc1ccc(OS(=O)(=O)c2cccc3cnccc23)cc1)C(=O)N1CCN(c2ccccc2)CC1)S(=O)(=O)c1cccc2cnccc12` [KN-62], for which the “granulocytic differentiation of NB4 (morphology, Cd11b surface antigen)” value in experiment [1] (KN-62 (5 μM) in combination with RA 10^−9M-10^−10M) was “marked increase”. In addition, in experiment [1], the “morphologic granulocytic differentiation of NB4” value is on record as “relatively poor inducer”. The “differentiation of K-562” value with K-562 cells (preliminary studies, not shown) is “does not induce”. Also, in experiment [2], the “total CaMKIIγ level” value is recorded as “did not induce any significant changes” and the “activated, autophosphorylated CaMKIIγ level” value is “marked reduction”. Besides, the “bcr-abl induced Stat3 Ser727 phosphorylation” value in experiment [3] is “blocked”.

Consider `COc1ccc(S(=O)(=O)N(CCO)c2ccccc2CN(C)C/C=C/c2ccc(Cl)cc2)cc1` [KN-93], for which the “morphologic differentiation of K562” value in the experiment on K-562 cells (KN93 treated K562) is “no effect”. For the same compound, the “bcr-abl induced Stat3 Ser727 phosphorylation” value in experiment [3] was “blocked”.
